Assay results published in patent US20250313535A1, “ALPHA 4 BETA 7 INTEGRIN MODULATORS AND USES THEREOF” (DICE MOLECULES SV, INC., priority 2022, published 2025).
Like-named read-outs stand apart in the source and are kept apart here.

Legend:
[1] = molecular target: α4β7 integrin (Homo sapiens (Human), UniProt P13612+P26010); experiment: Integrin Adhesion Assay: Protocol 4 (MAdCAM-coated plate, RPMI-8866 cells with stable LOF mutation of the ITGB1 gene); format: cell-based
Outline: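 RPMI-8866 cells with CRISPR/Cas9 knockout of ITGB1 (2×10^6/mL) were added to MAdCAM-coated wells with compound (1% DMSO) in HEPES/NaCl buffer with 1 mM MnCl2, 0.1 mM CaCl2 and 1% BSA, then incubated 1 h at 37 °C. After four washes, adherent cells were quantified by CellTiter-Glo luminescence. Percent inhibition versus DMSO and control compound was fitted to 4-parameter curves.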

[2] = molecular target: α4β1 integrin (Homo sapiens (Human), UniProt P05556+P13612); experiment: Integrin Adhesion Assay: Protocol 5 (VCAM-coated plate, RPMI-8866 cells with stable LOF mutation of the ITGB7 gene); format: cell-based
Chain of α4β1 integrin (P13612 34-1032): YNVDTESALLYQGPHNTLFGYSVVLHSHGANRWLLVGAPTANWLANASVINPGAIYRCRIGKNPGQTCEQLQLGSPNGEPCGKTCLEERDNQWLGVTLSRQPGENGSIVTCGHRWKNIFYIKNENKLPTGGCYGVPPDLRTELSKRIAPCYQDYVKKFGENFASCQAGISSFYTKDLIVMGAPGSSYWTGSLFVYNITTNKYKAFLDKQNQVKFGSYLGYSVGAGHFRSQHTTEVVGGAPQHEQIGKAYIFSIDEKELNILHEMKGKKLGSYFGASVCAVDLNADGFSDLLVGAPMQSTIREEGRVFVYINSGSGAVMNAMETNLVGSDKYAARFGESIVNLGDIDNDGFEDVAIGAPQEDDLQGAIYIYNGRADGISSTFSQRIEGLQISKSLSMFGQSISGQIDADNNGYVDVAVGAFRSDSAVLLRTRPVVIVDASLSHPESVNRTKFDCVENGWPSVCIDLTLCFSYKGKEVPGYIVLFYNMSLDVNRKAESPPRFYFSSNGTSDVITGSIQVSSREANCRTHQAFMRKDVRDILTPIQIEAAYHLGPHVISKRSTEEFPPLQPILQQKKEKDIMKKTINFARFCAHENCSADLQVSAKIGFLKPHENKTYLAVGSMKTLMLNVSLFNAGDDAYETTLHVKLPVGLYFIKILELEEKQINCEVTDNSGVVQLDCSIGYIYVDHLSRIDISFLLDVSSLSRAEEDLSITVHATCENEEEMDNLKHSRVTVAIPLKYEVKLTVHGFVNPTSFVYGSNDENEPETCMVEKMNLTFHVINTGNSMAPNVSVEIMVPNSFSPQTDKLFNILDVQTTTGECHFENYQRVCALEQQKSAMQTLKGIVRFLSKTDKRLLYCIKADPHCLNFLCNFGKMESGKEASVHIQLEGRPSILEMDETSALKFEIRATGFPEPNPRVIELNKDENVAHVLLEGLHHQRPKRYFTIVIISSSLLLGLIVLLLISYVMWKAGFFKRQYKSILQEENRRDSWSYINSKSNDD
Chain of α4β1 integrin (P05556 21-798): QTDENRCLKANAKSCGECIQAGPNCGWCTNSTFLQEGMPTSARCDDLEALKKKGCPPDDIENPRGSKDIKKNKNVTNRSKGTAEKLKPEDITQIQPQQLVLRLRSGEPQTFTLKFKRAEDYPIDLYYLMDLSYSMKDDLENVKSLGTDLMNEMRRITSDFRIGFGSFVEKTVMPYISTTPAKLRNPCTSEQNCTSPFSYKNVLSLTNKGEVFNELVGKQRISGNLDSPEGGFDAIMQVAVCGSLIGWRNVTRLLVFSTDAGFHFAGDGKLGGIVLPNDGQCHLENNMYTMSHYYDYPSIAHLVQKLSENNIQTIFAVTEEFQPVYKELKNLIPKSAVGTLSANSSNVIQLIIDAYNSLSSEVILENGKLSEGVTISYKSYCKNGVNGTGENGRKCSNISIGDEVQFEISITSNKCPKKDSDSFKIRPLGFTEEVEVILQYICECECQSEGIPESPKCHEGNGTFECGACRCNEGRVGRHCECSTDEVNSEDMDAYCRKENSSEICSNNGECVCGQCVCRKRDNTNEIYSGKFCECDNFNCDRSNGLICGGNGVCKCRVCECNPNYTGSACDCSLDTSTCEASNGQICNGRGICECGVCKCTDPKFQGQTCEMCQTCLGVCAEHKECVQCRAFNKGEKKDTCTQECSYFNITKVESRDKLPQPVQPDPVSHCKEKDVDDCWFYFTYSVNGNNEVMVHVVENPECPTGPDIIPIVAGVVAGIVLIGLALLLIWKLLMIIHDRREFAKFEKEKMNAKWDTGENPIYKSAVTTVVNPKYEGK
Outline: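 RPMI-8866 B cells with CRISPR/Cas9 ITGB7 knockout (clonal, verified by flow cytometry) adhered to VCAM-coated wells for 1 h at 37° C in HEPES/NaCl buffer with 1 mM MnCl2, 0.1 mM CaCl2, 1% BSA, 1% DMSO. Bound cells quantified by CellTiter-Glo luminescence after washing; % inhibition versus DMSO and control, 4-parameter fit.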

[3] = RPMI-8866 cells with stable LOF mutation of the ITGB1 gene, read-out: Mean IC50 α4β7 KO^a
[4] = RPMI-8866 cells with stable LOF mutation of the ITGB7 gene, read-out: Mean IC50 α4β1 KO^b
[5] = Protocol 4, RPMI-8866 cells with LOF mutation of ITGB1, MAdCAM, read-out: Mean IC50 α4β7 KO
[6] = Protocol 5, RPMI-8866 cells with LOF mutation of ITGB7, VCAM, read-out: Mean IC50 α4β1 KO

Chain of α4β7 integrin (P13612 34-1032): as the sequence (P13612 34-1032) above
Chain of α4β7 integrin (P26010 20-798): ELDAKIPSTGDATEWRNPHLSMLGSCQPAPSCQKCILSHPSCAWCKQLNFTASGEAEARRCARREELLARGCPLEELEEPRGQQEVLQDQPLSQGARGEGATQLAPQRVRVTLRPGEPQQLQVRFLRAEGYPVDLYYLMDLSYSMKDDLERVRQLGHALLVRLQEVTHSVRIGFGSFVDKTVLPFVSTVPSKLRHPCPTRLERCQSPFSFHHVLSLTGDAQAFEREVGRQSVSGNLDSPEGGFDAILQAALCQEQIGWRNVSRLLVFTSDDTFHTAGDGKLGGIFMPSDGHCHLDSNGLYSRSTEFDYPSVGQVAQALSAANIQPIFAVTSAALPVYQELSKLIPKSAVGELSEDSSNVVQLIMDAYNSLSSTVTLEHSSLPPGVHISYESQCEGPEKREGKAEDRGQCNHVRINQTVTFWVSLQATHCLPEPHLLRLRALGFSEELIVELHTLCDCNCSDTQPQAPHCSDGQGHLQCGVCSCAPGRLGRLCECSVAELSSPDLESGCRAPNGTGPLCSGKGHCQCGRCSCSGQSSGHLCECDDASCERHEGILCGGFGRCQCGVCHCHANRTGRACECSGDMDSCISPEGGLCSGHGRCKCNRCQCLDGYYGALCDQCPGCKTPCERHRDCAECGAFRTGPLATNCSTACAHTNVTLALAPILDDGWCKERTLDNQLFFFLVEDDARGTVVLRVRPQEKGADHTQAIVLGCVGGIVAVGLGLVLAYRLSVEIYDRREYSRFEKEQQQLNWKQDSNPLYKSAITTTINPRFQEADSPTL

Structure (SMILES)	IC50 [1, 3] [nM]	IC50 [2, 4] [nM]	IC50 [1, 5] [nM]	IC50 [2, 6] [nM]
O=C(O)[C@H](Cc1cccc2c(-c3ncc(CN4CCC(C(F)(F)F)CC4)c4ccccc34)cccc12)NC(=O)C1(C(F)(F)F)CCN(C2COC2)CC1 [Compound 580]	< 10	> 1000		
COc1ccc(CN2CCC(CF)CC2)c(OC)c1-c1cccc2c(C[C@H](NC(=O)c3c(C)cccc3F)C(=O)O)cccc12 [Compound 652]	< 10	100 to 1000		
COc1ccc2c(c1-c1cccc3c(C[C@H](NC(=O)C4(C(F)(F)F)CCN(CC(F)(F)F)CC4)C(=O)O)cccc13)CN(CC(F)F)CC2 [Compound 753]			10 to 100	> 1000
Cn1c(=O)c(-c2cccc3c(C[C@H](NC(=O)C4(C(F)(F)F)CCNCC4)C(=O)O)cccc23)c(C(F)(F)F)c2ccccc21 [Compound 492]	10 to 100	> 1000		
COc1ccc(CN2CC[C@H](F)C2)cc1-c1cccc2c(C[C@H](NC(=O)C3(C(F)(F)F)CCN(CC(F)F)CC3)C(=O)O)cccc12 [Compound 943]			< 10	10 to 100
COc1ccc(CN2CCCCC2)c(C(F)(F)F)c1-c1cccc2c(C[C@H](NC(=O)c3c(C)cccc3F)C(=O)O)cccc12 [Compound 562]	< 10	100 to 1000		
COc1cccc(CCN2CCC(C)C(F)(F)CC2)c1-c1cccc2c(C[C@H](NC(=O)C3(C(F)(F)F)CCN(CC(F)F)CC3)C(=O)O)cccc12 (stereo partly shown) [Compound 971]			< 10	100 to 1000
COc1cccc(CN2CCCC(F)C2)c1-c1cccc2c(C[C@H](NC(=O)C3(C(F)(F)F)CCN(CC(F)(F)F)CC3)C(=O)O)cccc12 (stereo partly shown) [Compound 828]			10 to 100	> 1000
COc1ccc(CN2CCCCC2)cc1-c1cccc2c(C[C@H](NC(=O)c3c(C)cccc3F)C(=O)O)cccc12 [Compound 667]	10 to 100	> 1000		
Cn1c(=O)c(-c2cccc3c(C[C@H](NC(=O)C4(C(F)(F)F)CCN([C@H]5CCOC5)CC4)C(=O)O)cccc23)c(C(F)(F)F)c2ccccc21 [Compound 457]	< 10	100 to 1000		
Cc1cc(CN2CCC(C)(C)CC2)cnc1-c1cccc2c(C[C@H](NC(=O)C3(C(F)(F)F)CCN(CC(F)F)CC3)C(=O)O)cccc12 [Compound 902]			< 10	> 1000
CC1OCC1N1CCC(C(=O)N[C@@H](Cc2cccc3c(-c4c(C(F)(F)F)c5ccccc5n(C)c4=O)cccc23)C(=O)O)(C(F)(F)F)CC1 (stereo partly shown) [Compound 510]	< 10	100 to 1000		
O=C(O)[C@H](Cc1cccc2c(-c3ncc(CN4CCCCC4)cc3C(F)(F)F)cccc12)NC(=O)C1(C(F)(F)F)CCN(CC(F)(F)F)CC1 [Compound 881]			10 to 100	> 1000
O=C(O)[C@H](Cc1cccc2c(-c3ncc(CN4CCC5(CC4)CC5)c4ccccc34)cccc12)NC(=O)C1(C(F)(F)F)CCN(CC(F)(F)F)CC1 [Compound 883]			< 10	> 1000
O=C(O)[C@H](Cc1cccc2c(-c3cc(CN4CCCCC4)cc4cccnc34)cccc12)NC(=O)C1(C(F)(F)F)CCN(CC(F)(F)F)CC1 [Compound 732]			10 to 100	> 1000
CN1CCCC1c1cc(-c2cccc3c(C[C@H](NC(=O)C4(C(F)(F)F)CCN(CC(F)(F)F)CC4)C(=O)O)cccc23)c2cnccc2c1 (stereo partly shown) [Compound 532]	10 to 100	> 1000		
O=C(O)[C@H](Cc1cccc2c(-c3ncc(CN4CCCCC4)c4ccccc34)cccc12)NC(=O)C1(C(F)(F)F)CCNCC1 [Compound 550]	10 to 100	> 1000		
COc1cc(CN2CCC(F)(F)C2)cc(OC)c1-c1cccc2c(C[C@H](NC(=O)C3(C(F)(F)F)CCN(CC(F)(F)F)CC3)C(=O)O)cccc12 [Compound 797]			< 10	> 1000
COc1cccc(F)c1C(=O)N[C@@H](Cc1cccc2c(-c3c(CN4CCCCC4)cccc3OC)cccc12)C(=O)O [Compound 675]	< 10	100 to 1000		
CC[C@H]1CCCCN1Cc1cnc(-c2cccc3c(C[C@H](NC(=O)C4(C(F)(F)F)CCN(CC(F)(F)F)CC4)C(=O)O)cccc23)c2ccccc12 [Compound 929]			< 10	100 to 1000
O=C(O)[C@H](Cc1cccc2c(-c3ncc(CCN4CCCCC4)c4ccccc34)cccc12)NC(=O)C1(C(F)(F)F)CCN(CC(F)F)CC1 [Compound 955]			< 10	100 to 1000
COc1ccc2c(c1-c1cccc3c(C[C@H](NC(=O)C4(C(F)(F)F)CCN(CC(F)(F)F)CC4)C(=O)O)cccc13)CCN(C)C2 [Compound 737]			< 10	100 to 1000

Structure (SMILES)	IC50 [1, 3] [nM]	IC50 [2, 4] [nM]	IC50 [1, 5] [nM]	IC50 [2, 6] [nM]
COc1cc(CN2CCCCC2)c2cccnc2c1-c1cccc2c(C[C@H](NC(=O)C3(C(F)(F)F)CCN(CC(F)(F)F)CC3)C(=O)O)cccc12 [Compound 728]			< 10	100 to 1000
CN(C)Cc1cccc2c(-c3cccc4c(C[C@H](NC(=O)C5(C(F)(F)F)CCN(CC(F)(F)F)CC5)C(=O)O)cccc34)nccc12 [Compound 421]	< 10	> 1000		
O=C(O)[C@H](Cc1cccc2c(-c3nccc4c(CN5CCOCC5)cccc34)cccc12)NC(=O)C1(C(F)(F)F)CCN(CC(F)(F)F)CC1 [Compound 559]	< 10	> 1000		
COc1cccc(CN2CCCCC2)c1-c1cccc2c(C[C@H](NC(=O)c3c(C)cc(C4CC(F)(F)C4)cc3F)C(=O)O)cccc12 [Compound 544]	< 10	100 to 1000		
COc1cc(CN2CCC(F)(F)CC2)cc(C(F)(F)F)c1-c1cccc2c(C[C@H](NC(=O)C3(C(F)(F)F)CCN(CC(F)(F)F)CC3)C(=O)O)cccc12 [Compound 847]			10 to 100	> 1000
O=C(O)[C@H](Cc1cccc2c(-c3ncc(CN4CCOCC45CC5)c4ccccc34)cccc12)NC(=O)C1(C(F)(F)F)CCN(CC(F)(F)F)CC1 [Compound 870]			< 10	> 1000
COCCN1CCC(C(=O)N[C@@H](Cc2cccc3c(-c4c(C(F)(F)F)c5ccccc5n(C)c4=O)cccc23)C(=O)O)(C(F)(F)F)CC1 [Compound 502]	< 10	100 to 1000		
CN(C)Cc1ccc2c(c1)c(C(F)(F)F)c(-c1cccc3c(C[C@H](NC(=O)C4(C(F)(F)F)CCN(CC(F)(F)F)CC4)C(=O)O)cccc13)c(=O)n2C [Compound 696]			< 10	10 to 100
Cn1c(=O)c(-c2cccc3c(C[C@H](NC(=O)C4(C(F)(F)F)CCN(C5(C(F)(F)F)CC5)CC4)C(=O)O)cccc23)c(C(F)(F)F)c2ccccc21 [Compound 486]	> 1000	> 1000		
CN(Cc1cnc(-c2cccc3c(C[C@H](NC(=O)C4(C(F)(F)F)CCN(CC(F)(F)F)CC4)C(=O)O)cccc23)c2ccccc12)CC(F)F [Compound 922]			10 to 100	> 1000
COc1ccc2cccnc2c1-c1cccc2c(C[C@H](NC(=O)C3(C(F)(F)F)CCN(CC(F)(F)F)CC3)C(=O)O)cccc12 [Compound 472]	< 10	> 1000		
COc1ccc(CN2CCC2)c(OC)c1-c1cccc2c(C[C@H](NC(=O)c3c(C)cccc3F)C(=O)O)cccc12 [Compound 628]	< 10	100 to 1000		
O=C(O)[C@H](Cc1cccc2c(-c3ncc(CN4CC5CC(C5)C4)c4ccccc34)cccc12)NC(=O)C1(C(F)(F)F)CCN(CC(F)(F)F)CC1 [Compound 885]			< 10	> 1000
O=C(O)[C@H](Cc1cccc2c(-c3ncc(CN4CCCCC4)cc3Cl)cccc12)NC(=O)C1(C(F)(F)F)CCN(CC(F)(F)F)CC1 [Compound 761]			10 to 100	> 1000
COc1ccc(CN2CCOCC2)c(OC)c1-c1cccc2c(C[C@H](NC(=O)C3(C(F)(F)F)CCN(CC(F)(F)F)CC3)C(=O)O)cccc12 [Compound 785]			10 to 100	100 to 1000
COC(=O)[C@H](Cc1cccc2c(-c3c(OC)ccc(CN4CCC(C)C(F)(F)CC4)c3OC)cccc12)NC(=O)C1(C(F)(F)F)CCN(CC(F)(F)F)CC1 (stereo partly shown) [Compound 779]			< 10	100 to 1000
Cc1cc(CN2CCC(C)(C)CC2)cnc1-c1cccc2c(C[C@H](NC(=O)C3(C(F)(F)F)CCN(C4COC4)CC3)C(=O)O)cccc12 [Compound 945]			< 10	> 1000
COC(=O)[C@H](Cc1cccc2c(-c3c(OC)ccc(CN4C(C)CCC4C)c3OC)cccc12)NC(=O)c1c(C)cccc1F (stereo partly shown) [Compound 552]	< 10	100 to 1000		
O=C(O)[C@H](Cc1cccc2c(-c3ncc(CN4CCCCC4)c4ccccc34)cccc12)NC(=O)C1(C(F)(F)F)CCN(CC2(C(F)(F)F)CC2)CC1 [Compound 683]	< 10	> 1000		
O=C(O)[C@H](Cc1cccc2c(-c3nccc4c(CN5CCC(F)CC5)cccc34)cccc12)NC(=O)C1(C(F)(F)F)CCN(CC(F)(F)F)CC1 [Compound 560]	< 10	> 1000		
COc1ccc(CN2CCC(F)(F)CC2)c(OC)c1-c1cccc2c(C[C@H](NC(=O)C3(C(F)(F)F)CCN([C@@H]4COC[C@H]4F)CC3)C(=O)O)cccc12 [Compound 670]	10 to 100	100 to 1000		
Cc1cc(CN2CCC(C(F)(F)F)CC2)cnc1-c1cccc2c(C[C@H](NC(=O)C3(C(F)(F)F)CCN(C4COC4)CC3)C(=O)O)cccc12 [Compound 900]			< 10	> 1000
